For orientation: solubility means the dissolved amount per volume that the medium holds. A lower solubility goes with little dissolved substance.

The conditions of series [1]: in vivo; cited from earlier work.
Series [2] in a line: monitoring of adverse effects and toxicity in treated glioma rats. The class given is in vivo. From the text: . n=15 for 2,4-ds-PBN-treated rats, and n=5 for non-treated rats) in 2,4-ds-PBN-treated rats (see FIG. 5). Rats treated with 2,4-ds-PBN achieved >80% survival over the 40 day study period (n=15), compared to non-treated rats (n=5). […] Gross signs of adverse effects that were monitored included weight loss, ruffling of fur, and behavioural and postural changes.

For a further series, the system named is iNOS. Nature of the series: iNOS protein expression in C6 cells. Format: cell-based, rat. The note with it: 100 μM. The source says: (§1) The inventors then examined iNOS and VEGF protein expressions in the 2,4-ds-PBN treated C6 cells.
A further series has as its system C6 cells. The series is described as follows: cell proliferation. The class given is cell-based, rat. Particulars: concentration dependence.
For the next series, the system named is C6 glioma. Nature of the series: intracerebral C6 rat glioma cell implantation model, MR imaging. The class given is in vivo. Here is the method:
The inventors used an intracerebral C6 rat glioma cell implantation method, widely accepted by the glioma research field, as a good model for gliomas. To induce glioma in rats, C6 rat glioma cells (10^6 cells in 10 μL were injected into the cerebral cortex of male Fischer 344 rats. Fifteen days later, 2,4-ds-PBN was orally administered through drinking water (0.015%, 17.5 mg/kg). The efficacy of 2,4-ds-PBN was assessed with the tumor growth patterns and growth rates by using magnetic resonance (MR) imaging (T1/T2-weighted imaging) methods over the course of a month.
(§2) FIG. 4 represents a series of MR images taken over a period of 25 days for an untreated control group and representative data (best-case, average effect, and worst-case) for 2,4-ds-PBN-treated rats (via drinking water administration at a dose of 17 mg/kg/day). […] Rats treated with 2,4-ds-PBN achieved >80% survival over the 40 day study period (n=15), compared to non-treated rats (n=5). […] Gross signs of adverse effects that were monitored included weight loss, ruffling of fur, and behavioural and postural changes.

Series [3] has as its system pro-caspase 3 and pro-caspase 9. The series is described as follows: Western blots of apoptotic factors in C6 cells. Particulars: increasing concentrations. The class given is cell-based, rat. Here is the method: FIG. 6: Western blots of rat C6 cells with increasing concentrations of 2,4-ds-PBN. Increasing levels of apoptotic factors pro-caspase 3 and pro-caspase 9 are shown, relative to actin.
as §2
For orientation: A western blot detects proteins with antibodies after separation by electrophoresis.

Another series deals with VEGF. Nature of the series: VEGF protein expression in C6 cells. The class given is cell-based, rat. Particulars: 5 mM.
From the text: as §1

The nature of another series: solubility in water. Format: physicochemical. The note with it: free acid. From the text:
The product so formed is the free acid and is characterized by a molecular weight of […]. It is a white powdery material which decomposes upon heating. […]; 8.836 ppm (d, 8.4 Hz); 8.839 ppm (d, 1.7 Hz); 8.774 ppm (s).

The conditions of series [4]: rats; cited from earlier work.
The test system of another series is C6 gliomas. The note with it: cited from earlier work.

Molecules are shown by their SMILES. Structures can show the parent of a compound that is named as a salt. Some results are limits rather than exact numbers.

With `CC(C)(C)[N+]([O-])=Cc1ccc(S(=O)(=O)O)cc1S(=O)(=O)O` [2,4-ds-PBN, 2,4-disulfonyl phenyl tert-butyl nitrone], the blood-brain-barrier penetration result in series [1] is recorded as “cannot easily pass through the BBB”. In addition, the toxicity effects entry in series [2] (rat, in vivo) is listed as “No toxicity effects were detected”. Further, the “side effects during the treatment period” value in series [2] (weight loss, ruffling of fur, behavioural and postural changes monitored) is listed as “No side effects were observed”. In addition, in the series with iNOS, the iNOS expression decrease result was “approximately 75%”. In addition, the “inhibition of cell proliferation” value in the series with C6 cells is reported as “little effect”. Besides, in the series with C6 glioma (17 mg/kg/day via drinking water from day 15 after cell implantation, vs non-treated rats, n=15 vs n=5), the “C6 glioma tumor volumes decrease” value is listed as > 15 fold. Further, the “survival over the 40 day study period” value in the series with C6 glioma (2,4-ds-PBN in drinking water, n=15, compared to non-treated rats (n=5)) is given as > 80%. Further, the “apoptotic effect (pro-caspase 3, pro-caspase 9 levels relative to actin)” value in series [3] was “pro-apoptotic as concentration increases”. Further, in the series on VEGF, the VEGF expression reduction worked out at 50%. Besides, the solubility in “solubility in water” was > 1000 mg/mL.

Turning to `O=NN(CCCl)C(=O)NC1CCCCC1` [Lomustine, 1-(2-chloroethyl)-3-cyclohexyl-1-nitrosourea], the blood-brain-barrier penetration result in series [1] is “crosses the blood brain barrier”.

For `CC(C)(C)[N+]([O-])=Cc1ccccc1` [PBN, phenyl N-tert-butyl nitrone], the blood-brain-barrier penetration result in series [1] is reported as “easily penetrate the BBB”. This molecule also yielded an iNOS expression decrease in the series on iNOS of 5%. In addition, in the series on C6 cells, the “inhibition of cell proliferation” value is “significantly inhibited cell proliferation in a concentration dependent manner”. For the same molecule, the half-life result in series [4] is listed as “about 132 minutes”. Moreover, in the series on C6 gliomas (PBN administration as a pretreatment, rat C6 glioma), the “effect on tumor growth, pretreatment” value is “decrease in growth rate and tumor regression”. The “effect on tumor regression, post-treatment” value in the series on C6 gliomas (post-treatment of PBN, compared with pre-treatment) is given as “little effect for tumor regression”.

`CC(C)(C)/[N+]([O-])=C/c1ccccc1S(=O)(=O)O` [S-PBN]: in the series on C6 cells, the “inhibition of cell proliferation” value is reported as “little effect”.

Take `CC[C@]1(O)C[C@H]2CN(CCc3c([nH]c4ccccc34)[C@@](C(=O)OC)(c3cc4c(cc3OC)N(C=O)[C@H]3[C@@](O)(C(=O)OC)[C@H](OC(C)=O)[C@]5(CC)C=CCN6CC[C@]43[C@@H]65)C2)C1` [Vincristine, vincaleukoblastine, a 22-oxo-, sulfate (1:1) (salt)]: in series [1], the blood-brain-barrier penetration result is reported as “does not appear to cross the blood brain barrier”.

Source of the values: US10398659B2, “Adjuvant chemotherapy for anaplastic gliomas” (OKLAHOMA MEDICAL RESEARCH FOUNDATION, priority 2008, dated 2019).
